# Reference: US20230159445A1, “STAT INHIBITORY COMPOUNDS AND COMPOSITIONS” (JANPIX LIMITED, priority 2020, published 2023)
# Like-named read-outs stand apart in the source and are kept apart here.
# What was measured:
# glutathione (GSH) = experiment: Reactivity Profiling with Glutathione (GSH), half-life by HPLC; conditions: 5 mM glutathione (GSH) in IMDM with 10% FBS
# MV4-11 cells = experiment: MV4-11 Cell Cytotoxicity Assay (CellTiter-Blue, 72 h); type: cell-based, human; conditions: Homo sapiens
# How it was run: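 Viability read-out: CellTiter-Blue, 1 h, fluorescence 560/590 nm. Preceded by 72 h exposure (37° C, 5% CO2) to twofold dilution series from 50 μM, triplicate, 0.5% DMSO vehicle, applied 24 h after plating.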
# [1] = system: normal human fibroblast (NHF) cells; experiment: NHF Cell Cytotoxicity Assay (CellTiter-Blue, 72 h), off-target effects; type: cell-based; conditions: Homo sapiens, Fibroblast; pooled NHF cells
# How it was run: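 Normal human fibroblasts (1×10^4/well, 10% FBS medium) were treated after 24 h with inhibitor at 0.097656-50 μM for 72 h at 37° C. Viability was read by CellTiter-Blue fluorescence (560/590 nm), normalized to DMSO control, and IC50 obtained from a variable-slope log(inhibitor)-response fit of four replicates.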
# [2] = Reactivity Profiling with Glutathione (GSH), half-life by HPLC; conditions: 5 mM glutathione, 25° C., HPLC
# [3] = MV4-11 cells, 72 h, CellTiter-Blue, read-out: IC50- MV-4-11
SMILES,half-life at 25 μM (glutathione (GSH)) [h],"IC50 (MV4-11 cells; MV4-11, MV-4-11 cells) [nM]",IC50 [1] [µM],Tl/2- GSH [2],IC50 (MV4-11 cells; [3]) [nM]
"CCOc1cc(C(=O)O)ccc1N(Cc1cc(C2CC2)cc(C(C)(C)C)c1)C(=O)CN(Cc1ccccc1C#N)S(=O)(=O)c1c(F)c(F)c(F)c(F)c1F [Compound 1272, 4-(N-(3-(tert-butyl)-5-cyclopropylbenzyl)-2-((N-(2-cyanobenzyl)-2,3,4,5,6-pentafluorophenyl)sulfonamido)acetamido)-3-ethoxybenzoic acid]",2.37 to 4.12,0.01 to 316,10 to 20,–,–
"CCOc1cc(C(=O)O)ccc1N(Cc1cc(C2CC2)cc(C2CC2)c1)C(=O)CN(Cc1ccccc1C#N)S(=O)(=O)c1c(F)c(F)c(F)c(F)c1F [Compound 1273, 4-(2-((N-(2-cyanobenzyl)-2,3,4,5,6-pentafluorophenyl)sulfonamido)-N-(3,5-dicyclopropylbenzyl)acetamido)-3-ethoxybenzoic acid]",0.00167 to 2.37,0.01 to 316,10 to 20,–,–
"CCOc1cc(C(=O)O)cc(F)c1N(Cc1cc(C2CC2)cc(C2CC2)c1)C(=O)CN(Cc1ccccc1C#N)S(=O)(=O)c1c(F)c(F)c(F)c(F)c1F [Compound 1274, 4-(2-((N-(2-cyanobenzyl)-2,3,4,5,6-pentafluorophenyl)sulfonamido)-N-(3,5-dicyclopropylbenzyl)acetamido)-3-ethoxy-5-fluorobenzoic acid]",2.37 to 4.12,0.01 to 316,10 to 20,–,–
"CCOc1cc(C(=O)O)cc(F)c1N(Cc1cc(C2CC2)cc(C2CC2)c1)C(=O)CN(Cc1ccc(F)cc1Cl)S(=O)(=O)c1c(F)c(F)c(F)c(F)c1F [Compound 1276, 4-(2-((N-(2-chloro-4-fluorobenzyl)-2,3,4,5,6-pentafluorophenyl)sulfonamido)-N-(3,5-dicyclopropylbenzyl)acetamido)-3-ethoxy-5-fluorobenzoic acid]",4.12 to 9.23,0.01 to 316,10 to 20,–,–
"CCOc1cc(C(=O)O)ccc1N(Cc1cc(C2CC2)cc(C(C)(C)C)c1)C(=O)CN(Cc1cnccc1Cl)S(=O)(=O)c1c(F)c(F)c(F)c(F)c1F [Compound 1277, 4-(N-(3-(tert-butyl)-5-cyclopropylbenzyl)-2-((N-((4-chloropyridin-3-yl)methyl)-2,3,4,5,6-pentafluorophenyl)sulfonamido)acetamido)-3-ethoxybenzoic acid]",0.00167 to 2.37,0.01 to 316,0.001 to 10,–,–
"CCOc1cc(C(=O)O)ccc1N(Cc1cc(C2CC2)cc(C2CC2)c1)C(=O)CN(Cc1ccccc1Cl)S(=O)(=O)c1c(F)c(F)c(F)c(F)c1F [Compound 1278, 4-(2-((N-(2-chlorobenzyl)-2,3,4,5,6-pentafluorophenyl)sulfonamido)-N-(3,5-dicyclopropylbenzyl)acetamido)-3-ethoxybenzoic acid]",2.37 to 4.12,0.01 to 316,10 to 20,–,–
"N#Cc1ccccc1CN(CC(=O)N(Cc1cc(C2CC2)cc(C2CC2)c1)c1ccc(C(=O)O)cc1OC1CCCC1)S(=O)(=O)c1c(F)c(F)c(F)c(F)c1F [Compound 1279, 4-(2-((N-(2-cyanobenzyl)-2,3,4,5,6-pentafluorophenyl)sulfonamido)-N-(3,5-dicyclopropylbenzyl)acetamido)-3-(cyclopentyloxy)benzoic acid]",4.12 to 9.23,0.01 to 316,10 to 20,–,–
"CC(C)Oc1cc(C(=O)O)ccc1N(Cc1cc(C2CC2)cc(C2CC2)c1)C(=O)CN(Cc1ccccc1C#N)S(=O)(=O)c1c(F)c(F)c(F)c(F)c1F [Compound 1280, 4-(2-((N-(2-cyanobenzyl)-2,3,4,5,6-pentafluorophenyl)sulfonamido)-N-(3,5-dicyclopropylbenzyl)acetamido)-3-isopropoxybenzoic acid]",2.37 to 4.12,0.01 to 316,10 to 20,–,–
"CCOc1cc(C(=O)O)ccc1N(Cc1cc(C2CC2)cc(N2CCCC2)c1)C(=O)CN(Cc1ccccc1C#N)S(=O)(=O)c1c(F)c(F)c(F)c(F)c1F [Compound 1281, 4-(2-((N-(2-cyanobenzyl)-2,3,4,5,6-pentafluorophenyl)sulfonamido)-N-(3-cyclopropyl-5-(pyrrolidin-1-yl)benzyl)acetamido)-3-ethoxybenzoic acid]",2.37 to 4.12,0.01 to 316,10 to 20,–,–
"CC(C)(C)c1cc(CN(C(=O)CN(Cc2ccc(Cl)cc2)S(=O)(=O)c2c(F)c(F)c(F)c(F)c2F)c2ccc(C(=O)O)c(O)c2)cc(C(C)(C)C)c1 [Compound 2001, 4-(2-(N-(4-chlorobenzyl)-(2,3,4,5,6-pentafluorophenyl)sulfon-amido)-N-(3,5-di-tert-butylbenzyl)acetamido)-2-hydroxybenzoic acid]",–,–,–,B (247≤B<554),3160 to 100000
"O=C(O)c1ccc(N(Cc2ccccc2)C(=O)CN(Cc2ccc(Cl)cc2)S(=O)(=O)c2c(F)c(F)c(F)c(F)c2F)cc1O [Compound 2004, 4-(N-benzyl-2-(N-(4-chlorobenzyl)-(2,3,4,5,6-pentafluorophenyl)sulfon-amido)acetamido)-2-hydroxybenzoic acid]",–,–,–,D (0.1<D<142),3160 to 100000
"CC(C)(C)c1cc(CN(C(=O)CN(Cc2ccccc2F)S(=O)(=O)c2c(F)c(F)c(F)c(F)c2F)c2ccc(C(=O)O)c(O)c2)cc(C(C)(C)C)n1 [Compound 2015, 4-(N-((2,6-di-tert-butylpyridin-4-yl)methyl)-2-(N-(2-fluorobenzyl)-(2,3,4,5,6-pentafluoro-phenyl)sulfonamido)acetami-do)-2-hydroxybenzoic acid]",–,–,–,C (142≤C<247),3160 to 100000
"CN(C(=O)CN(Cc1ccccc1C(F)(F)F)S(=O)(=O)c1c(F)c(F)c(F)c(F)c1F)c1ccc(C(=O)O)cc1OC1CC1 [Compound 2016, 3-cyclopropoxy-4-(N-methyl-2-(N-(2-(trifluoromethyl)benzyl)-(2,3,4,5,6-pentafluoro-phenyl)sulfonamido)acetami-do)benzoic acid]",–,–,–,D (0.1<D<142),1000 to 3160
"CN(C(=O)CN(Cc1ccccc1C(F)(F)F)S(=O)(=O)c1c(F)c(F)c(F)c(F)c1F)c1ccc(C(=O)O)cc1N1CCOCC1 [Compound 2017, 4-(N-methyl-2-(N-(2-(trifluoromethyl)benzyl)-(2,3,4,5,6-pentafluoro-phenyl)sulfonamido)acetami-do)-3-morpholinobenzoic acid]",–,–,–,D (0.1<D<142),1000 to 3160
"CC(C)(C)c1cc(CN(C(=O)CN(Cc2ccc(Cl)cc2)S(=O)(=O)c2c(F)c(F)c(F)c(F)c2F)c2ccc(C(=O)O)c(O)c2)cc(C2CCC2)c1 [Compound 2020, 4-(N-(3-(tert-butyl)-5-cyclobutylbenzyl)-2-(N-(4-chlorobenzyl)-(2,3,4,5,6-pentafluorophenyl)sulfon-amido)acetamido)-2-hydroxybenzoic acid]",–,–,–,B (247≤B<554),3160 to 100000
